Here are results for one molecule from US20250302765A1, “TRIACETYL ANDROGRAPHOLIDE NANOCRYSTAL AND PREPARATION METHOD AND APPLICATION THEREOF” (Henan University, priority 2024, published 2025).

The structures appear in SMILES notation.

Details of series [1]: species or system SD rats. As to conditions: rat, in vivo, po, 200 mg/kg. The procedure:
The triacetyl andrographolide nanocrystal obtained in Example 1 was adopted, and a total of 12 SD rats were used as test objects (half female and half male, 200±20 g).
The rats were randomly divided into 2 groups (n=6, half female and half male) by body weight before a test was started. The test was carried out after fasting without water-deprivation for 12 h, one group was fed with a triacetyl andrographolide active pharmaceutical ingredient suspension (dosage of 200 mg/kg) via intragastric administration, and the other group was fed with a triacetyl andrographolide nanocrystal suspension (50 mg/kg by triacetyl andrographolide) via intragastric administration.
With an active pharmaceutical ingredient as reference, relative bioavailability of the triacetyl andrographolide nanocrystal was calculated according to the following formula:
[formula] • where AUC0-t, nanocrystal and AUC0-t, active pharmaceutical ingredient corresponded to areas under the plasma concentration-time curves at a moment 0-t of the triacetyl andrographolide nanocrystal and the active pharmaceutical ingredient respectively; and
Doseactive pharmaceutical ingredient and Dosenanocrystal corresponded to intragastric administration dosages of the triacetyl andrographolide active pharmaceutical ingredient and the nanocrystal respectively.
• where MRT(0-t) is a mean value of in-vivo retention time of drug molecules, representing time required for eliminating 63.2% of drugs in vivo; • T1/2 is a terminal elimination half-life, which is time required for a terminal phase plasma concentration to decrease by half; • Tmax is time required to reach a peak concentration of drug after administration, this parameter reflects a speed at which a drug enters the body, and the faster the absorption rate, the shorter the time to peak; • Cmax is a peak concentration of drug, the highest value of a plasma concentration occurring after administration, and this parameter is an important indicator reflecting a rate and degree of drug absorption in the body; • Vd is a proportionality constant between a drug dosage in the body and a plasma concentration when a drug reaches dynamic equilibrium in the body, usually with Las the unit, and this parameter reflects the degree of a distribution range of the drug in the body, with higher values indicating the wider distribution; and an apparent volume of distribution is numerically obtained by a ratio of a clearance rate to a terminal elimination rate; • F is bioavailability, a measure for a speed and degree at which a drug is absorbed into blood circulation, and is an important indicator for evaluating a degree of drug absorption; and the bioavailability may be divided into absolute bioavailability and relative bioavailability, the former is used to compare an absorption difference between two administration routes, while the latter is used to evaluate an absorption difference between two preparations; and • CL is a clearance rate, a value of an apparent volume of distribution of drugs cleared from the body per unit time, usually with L/h as the unit, and this parameter is an important parameter reflecting the body's drug disposal characteristics and is closely related to physiological factors; and the clearance rate is obtained according to a ratio of a dosage to AUC(0-∞).

The subject of series [2] is LPS-induced RAW264.7 cell. As to conditions: supernatant of LPS-induced RAW264.7 cell culture fluid; cited from earlier work.
Series [3] deals with rabbits with endotoxic shock. As to conditions: serums of rabbits with endotoxic shock; cited from earlier work.
For series [4] the following is noted: in vivo; cited from earlier work.
A short description of series [5]: In-vitro release degree in simulated pulmonary fluid (dialysis bag, HPLC). As to conditions: simulated pulmonary fluid pH 7.4, 37° C. The series is classed as physicochemical. The procedure:
With the triacetyl andrographolide nanocrystal prepared in Example 1 as an experimental subject, an activated dialysis bag with a molecular weight cut-off of 8000-14000 Da was taken, 5 mL of a simulated pulmonary fluid was added into the dialysis bag, the triacetyl andrographolide nanocrystal (0.5 mg by triacetyl andrographolide) was precisely weighed and dispersively suspended in the above simulated pulmonary fluid, two ends were tightened, then the dialysis bag was put into a conical flask containing 100 mL of a simulated pulmonary fluid in-vitro release medium (composition of the medium as shown in Table 1), the conical flask was placed in a constant-temperature gas bath shaker (37° C., 120 r/min), 2 mL of a released liquor was taken at each of different time points (0.5 h, 1 h, 2 h, 4 h, 6 h, 8 h, 12 h, 24 h, 36 h and 48 h) and was filtered through a 0.22 μm filter membrane, subsequence filtrates were taken to determine drug concentrations by adopting an HPLC method, and at the same time, the release medium was supplemented with 2 mL of an isothermal simulated pulmonary fluid. A cumulative release percentage was calculated according to determined results, and a release curve of the nanocrystal was drawn. […]

In the case of `C=C1CC[C@@H]2[C@](C)(COC(C)=O)[C@H](OC(C)=O)CC[C@@]2(C)[C@@H]1C/C=C1/C(=O)OC[C@H]1OC(C)=O` [active pharmaceutical ingredient, triacetyl andrographolide], in series [1], the exposure AUC(0-t) came out at 1924 ± 277.9 ng·h/mL, the apparent clearance (CL/F) is 2000 mL/min/kg, the Cmax stood at 495.1 ± 172.6 ng/mL and the “MRT(0-t)” value was found to be 8.07 ± 0.22 h. Moreover, in series [1], the T1/2 came to 4.79 ± 1.81 h, the time of peak concentration (Tmax) is on record as 6.67 ± 0.47 h and the Vd worked out at 800 ± 360 L/kg. Further, in series [2], the “content of IL-1β” value was “can reduce” and the “content of TNF-α” value is “can reduce”. Besides, in series [3], the “content of IL-1β” value was “can reduce” and the “content of TNF-α” value is reported as “can reduce”. For the same molecule, in series [4], the absolute bioavailability is on record as 7.19% and the “absolute bioavailability relative to that of andrographolide” value is on record as “more than 7 times”. In series [5] (12 h), the cumulative release percentage is recorded as 39%. The cumulative release percentage in series [5] (48 h) was 42%.

Broadly, the AUC(0-t) is exposure summed from dosing to a finite time, without extrapolation to infinity. As a reminder, the CL/F is the apparent clearance, not corrected for the fraction that reaches the circulation. A word on the Cmax: it is the highest concentration seen after dosing. For orientation: Tmax means the time from dosing to the highest level.
